Measured values taken from ChEMBL document CHEMBL1201862, “PubChem BioAssay data set” (2004).
The source made the active and inactive calls.

Experiments:
[1] = target: DNA dC->dU-editing enzyme APOBEC-3G (Homo sapiens, UniProt Q9HC16); assay: Dose Response confirmation of small molecule APOBEC3G DNA Deaminase Inhibitors via a fluorescence-based single-stranded DNA deaminase assay. [Related pubchem assays (depositor defined):AID493012, AID493028]; format: functional
[2] = target: DNA dC->dU-editing enzyme APOBEC-3A (Homo sapiens, UniProt P31941); assay: A3A deaminase inhibition for selectivity – biochemical, dose response (AID 504722); format: functional
Sequence of DNA dC->dU-editing enzyme APOBEC-3A (P31941 whole entry): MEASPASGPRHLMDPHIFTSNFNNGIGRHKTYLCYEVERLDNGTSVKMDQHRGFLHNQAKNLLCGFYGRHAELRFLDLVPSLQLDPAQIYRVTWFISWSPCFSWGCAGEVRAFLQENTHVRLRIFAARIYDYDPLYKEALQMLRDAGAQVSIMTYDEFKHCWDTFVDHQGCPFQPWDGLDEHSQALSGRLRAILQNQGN

[3] = viability of uninfected HEp-2 cells – cell-based, HTS, cytotoxicity control for RSV inhibitor project, dose response (AID 2410); format: functional; settings: human respiratory syncytial virus
Vero = assay: cells; format: functional, cell-based; settings: Chlorocebus sabaeus
[4] = Luminescence Cell-Based Dose Retest to Confirm Inhibitors of Cancer Stem Cells. [Related pubchem assays (depositor defined):AID2717, AID2721]; format: functional; settings: Homo sapiens
[5] = target: T1, Microphthalmia-associated transcription factor (Homo sapiens, UniProt O75030); assay: reducers of TRPM1 reporter luminescence, concentration series – cell-based, SK-MEL-5, cherry-picked, set 3, MITF inhibitor project, dose response (AID 493073); format: functional;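 further: SK-MEL-5 melanoma cells with luciferase driven by the MITF target TRPM1 promoter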
T1 sequence (O75030 whole entry): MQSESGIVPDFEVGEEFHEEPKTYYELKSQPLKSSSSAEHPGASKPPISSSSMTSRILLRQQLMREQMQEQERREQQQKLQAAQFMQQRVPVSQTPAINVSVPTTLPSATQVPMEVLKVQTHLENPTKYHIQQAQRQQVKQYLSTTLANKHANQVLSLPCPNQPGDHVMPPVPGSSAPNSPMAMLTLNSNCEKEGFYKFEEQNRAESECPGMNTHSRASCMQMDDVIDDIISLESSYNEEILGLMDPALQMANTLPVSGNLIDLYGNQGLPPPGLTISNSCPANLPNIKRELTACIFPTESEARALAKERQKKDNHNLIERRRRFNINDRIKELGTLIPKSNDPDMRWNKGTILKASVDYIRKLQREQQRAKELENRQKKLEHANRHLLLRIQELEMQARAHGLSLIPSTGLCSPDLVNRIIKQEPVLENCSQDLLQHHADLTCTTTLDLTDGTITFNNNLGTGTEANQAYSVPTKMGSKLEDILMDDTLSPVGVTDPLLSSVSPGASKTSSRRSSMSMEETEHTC

[6] = viability loss of HPDE-C7K cells – cell-based, fluorescence, HTS, primary screen (AID 431); format: functional; settings: Homo sapiens
[7] = HPDE-C7 pancreatic duct cell viability loss – fluorescence, HTS (AID 430); format: functional, cell-based; settings: Homo sapiens
Beta-galactosidase = Beta-galactosidase (Escherichia coli, UniProt Q8VNN2); assay: detection-enzyme interference by beta-gal modulators – biochemical, E. coli enzyme, set 3, artefact control for CCR6 antagonist project, dose response (AID 504712); format: functional
Sequence of Beta-galactosidase (Q8VNN2 whole entry): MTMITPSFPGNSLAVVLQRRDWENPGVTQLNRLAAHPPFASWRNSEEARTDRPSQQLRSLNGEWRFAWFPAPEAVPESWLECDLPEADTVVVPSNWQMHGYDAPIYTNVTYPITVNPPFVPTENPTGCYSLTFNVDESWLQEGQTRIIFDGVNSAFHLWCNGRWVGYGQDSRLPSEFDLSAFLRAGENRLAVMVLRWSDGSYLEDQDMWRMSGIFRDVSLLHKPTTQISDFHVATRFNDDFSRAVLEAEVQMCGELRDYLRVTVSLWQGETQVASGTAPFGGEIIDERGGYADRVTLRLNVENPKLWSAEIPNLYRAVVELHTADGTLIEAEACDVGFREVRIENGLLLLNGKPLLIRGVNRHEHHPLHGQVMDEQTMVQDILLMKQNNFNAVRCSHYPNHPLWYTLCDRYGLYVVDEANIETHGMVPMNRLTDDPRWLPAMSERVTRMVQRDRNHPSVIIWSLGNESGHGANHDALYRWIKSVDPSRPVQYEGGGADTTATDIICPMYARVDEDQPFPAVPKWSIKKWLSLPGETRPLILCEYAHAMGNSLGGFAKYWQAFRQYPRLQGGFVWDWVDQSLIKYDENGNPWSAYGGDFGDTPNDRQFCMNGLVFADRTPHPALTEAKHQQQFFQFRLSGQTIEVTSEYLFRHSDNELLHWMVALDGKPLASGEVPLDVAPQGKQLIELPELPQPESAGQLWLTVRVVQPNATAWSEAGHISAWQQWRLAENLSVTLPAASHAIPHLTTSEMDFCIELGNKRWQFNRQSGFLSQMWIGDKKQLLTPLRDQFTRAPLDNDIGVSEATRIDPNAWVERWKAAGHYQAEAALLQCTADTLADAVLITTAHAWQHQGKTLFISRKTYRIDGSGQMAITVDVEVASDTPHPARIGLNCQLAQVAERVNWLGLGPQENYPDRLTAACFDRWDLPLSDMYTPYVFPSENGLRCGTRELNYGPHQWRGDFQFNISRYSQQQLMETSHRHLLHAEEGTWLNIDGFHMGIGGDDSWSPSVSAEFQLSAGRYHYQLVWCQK

[8] = target: Heat shock protein HSP 90-alpha (Homo sapiens, UniProt P07900); format: functional, organism-based
[9] = target: T2, Rac GTPase-activating protein 1 (Homo sapiens, UniProt Q9H0H5); assay: blockers of MgcRacGAP-driven Rac1 GTP hydrolysis – biochemical, ADP Hunter fluorescence, primary and confirmatory, confirmation (AID 624330); format: functional
T2 sequence (Q9H0H5 whole entry): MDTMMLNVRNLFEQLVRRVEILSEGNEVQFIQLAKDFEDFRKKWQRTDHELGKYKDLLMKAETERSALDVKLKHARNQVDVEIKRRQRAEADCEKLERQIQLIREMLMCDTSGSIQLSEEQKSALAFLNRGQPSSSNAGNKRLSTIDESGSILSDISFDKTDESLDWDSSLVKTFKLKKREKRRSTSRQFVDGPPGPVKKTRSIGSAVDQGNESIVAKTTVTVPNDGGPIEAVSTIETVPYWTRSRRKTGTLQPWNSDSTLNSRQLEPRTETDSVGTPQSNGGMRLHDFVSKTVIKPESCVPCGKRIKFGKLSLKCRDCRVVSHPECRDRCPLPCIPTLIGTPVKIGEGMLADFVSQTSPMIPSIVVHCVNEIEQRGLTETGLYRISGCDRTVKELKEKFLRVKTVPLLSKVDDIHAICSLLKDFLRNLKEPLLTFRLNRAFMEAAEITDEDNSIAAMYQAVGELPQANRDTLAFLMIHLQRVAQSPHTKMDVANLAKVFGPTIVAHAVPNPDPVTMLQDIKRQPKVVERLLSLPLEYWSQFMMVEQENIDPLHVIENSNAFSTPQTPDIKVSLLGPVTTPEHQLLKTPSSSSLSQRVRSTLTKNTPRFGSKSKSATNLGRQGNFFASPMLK

[10] = microbe, parasite or virus in culture; format: functional; settings: Mycobacterium tuberculosis
[11] = non-specific 3'UTR reporter inhibition in Clone20-Shn3RL – cell-based, Renilla luciferase, cherry-picked, counter-screen for Shn3 inhibitor project, dose response (AID 624133); format: functional
[12] = target: T3, Heat shock factor protein 1 (Mus musculus, UniProt P38532); assay: enhancement of HSF1-driven luciferase signal – cell-based, NIH3T3, luminescence, dose retest, confirmation (AID 435004); format: functional;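 further: stress induced by proteasome inhibitor MG132 added 30 min after compound; luciferase reporter driven by HSF1 response element in NIH3T3 cells; actives raise luminescence as potentiators of the MG132 stress response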
T3 sequence (P38532 whole entry): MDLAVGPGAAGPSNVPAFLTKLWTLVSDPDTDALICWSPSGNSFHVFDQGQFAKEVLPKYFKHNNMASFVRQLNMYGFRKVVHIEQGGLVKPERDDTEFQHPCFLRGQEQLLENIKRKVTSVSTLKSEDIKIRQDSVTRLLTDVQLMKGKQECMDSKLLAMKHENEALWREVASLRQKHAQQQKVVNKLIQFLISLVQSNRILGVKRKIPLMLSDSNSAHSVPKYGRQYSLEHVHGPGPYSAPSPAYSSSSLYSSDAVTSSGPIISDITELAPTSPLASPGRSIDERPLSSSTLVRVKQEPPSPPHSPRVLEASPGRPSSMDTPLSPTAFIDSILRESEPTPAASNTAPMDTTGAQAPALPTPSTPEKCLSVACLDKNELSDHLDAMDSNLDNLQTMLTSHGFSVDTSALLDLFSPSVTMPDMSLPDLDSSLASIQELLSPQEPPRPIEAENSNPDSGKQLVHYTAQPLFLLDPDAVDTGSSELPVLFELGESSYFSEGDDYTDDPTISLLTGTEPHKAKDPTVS

[13] = viability loss in HeLa cells – cytotoxicity control for MgcRacGAP inhibitor project, dose response (AID 624300); format: functional
[14] = loss of viability in HepG2 cells – cell-based, CellTiter-Glo, cherry-picked, cytotoxicity control for Shn3 inhibitor project, dose response (AID 624134); format: functional
[15] = reduction of Shn3 3'UTR-driven luciferase in osteoblasts – cell-based, Clone20 osteoblasts, firefly luciferase, cherry-picked, dose response (AID 624132); format: functional;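 further: firefly luciferase luminescence from reporter carrying the Shn3 3'UTR in osteoblasts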
INS1 = assay: INS-1E survival protection against cytokine death – cell-based, luminescence, retest, dose response (AID 449756); format: functional; settings: Rattus norvegicus;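 further: cell death triggered by IL-1 beta plus TNF-alpha plus IFN-gamma mixture; protective hits raise ATP signal compared with cytokine alone wells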
[16] = NIH3T3 cell viability loss – ATP luminescence, mouse fibroblasts, counter-screen, dose response (AID 2010); format: functional, cell-based;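 further: cells exposed to compound for about 90 hours before reading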
Large T antigen = Large T antigen (Simian virus 40, UniProt P03070); format: functional, Betapolyomavirus macacae;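 further: Confirmatory-stage PubChem screen for compounds that inhibit SV40 T antigen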
Sequence of Large T antigen (P03070 whole entry): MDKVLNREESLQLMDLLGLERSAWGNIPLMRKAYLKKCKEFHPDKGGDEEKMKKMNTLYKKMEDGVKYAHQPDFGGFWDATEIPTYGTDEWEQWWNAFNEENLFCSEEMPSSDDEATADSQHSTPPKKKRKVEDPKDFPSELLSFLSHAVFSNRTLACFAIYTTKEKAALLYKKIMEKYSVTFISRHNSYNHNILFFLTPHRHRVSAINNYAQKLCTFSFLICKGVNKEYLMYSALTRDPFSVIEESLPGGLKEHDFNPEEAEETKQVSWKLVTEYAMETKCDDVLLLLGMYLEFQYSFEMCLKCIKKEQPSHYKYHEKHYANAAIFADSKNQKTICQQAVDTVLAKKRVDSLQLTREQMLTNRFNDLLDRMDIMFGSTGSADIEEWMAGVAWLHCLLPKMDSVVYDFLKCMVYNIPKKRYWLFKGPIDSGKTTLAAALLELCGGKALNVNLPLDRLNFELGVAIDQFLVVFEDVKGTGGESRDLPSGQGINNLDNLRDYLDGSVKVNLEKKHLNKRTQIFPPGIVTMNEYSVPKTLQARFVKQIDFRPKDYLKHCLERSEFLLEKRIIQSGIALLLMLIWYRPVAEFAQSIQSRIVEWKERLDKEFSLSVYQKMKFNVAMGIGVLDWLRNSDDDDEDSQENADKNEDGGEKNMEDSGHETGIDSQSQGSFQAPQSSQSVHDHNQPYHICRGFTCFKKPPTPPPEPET

[17] = Trypanosoma cruzi growth suppression in host cells – NIH3T3 host cells, beta-gal luminescence, confirmation (AID 2044); format: functional, cell-based;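 further: intracellular parasites grown in NIH/3T3 mouse fibroblasts as host cells; luminescent beta-galactosidase reporter signal from transgenic T. cruzi replicating inside host cells; inhibitors lower the luminescence signal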
[18] = target: Glucose-6-phosphate 1-dehydrogenase (Homo sapiens, UniProt P11413); assay: inhibition of Homo sapiens G6PD, dose series – biochemical, fluorescence, selectivity assay for P. falciparum G6PD inhibitor project, dose response (AID 504792); format: functional
Sequence of Glucose-6-phosphate 1-dehydrogenase (P11413 whole entry): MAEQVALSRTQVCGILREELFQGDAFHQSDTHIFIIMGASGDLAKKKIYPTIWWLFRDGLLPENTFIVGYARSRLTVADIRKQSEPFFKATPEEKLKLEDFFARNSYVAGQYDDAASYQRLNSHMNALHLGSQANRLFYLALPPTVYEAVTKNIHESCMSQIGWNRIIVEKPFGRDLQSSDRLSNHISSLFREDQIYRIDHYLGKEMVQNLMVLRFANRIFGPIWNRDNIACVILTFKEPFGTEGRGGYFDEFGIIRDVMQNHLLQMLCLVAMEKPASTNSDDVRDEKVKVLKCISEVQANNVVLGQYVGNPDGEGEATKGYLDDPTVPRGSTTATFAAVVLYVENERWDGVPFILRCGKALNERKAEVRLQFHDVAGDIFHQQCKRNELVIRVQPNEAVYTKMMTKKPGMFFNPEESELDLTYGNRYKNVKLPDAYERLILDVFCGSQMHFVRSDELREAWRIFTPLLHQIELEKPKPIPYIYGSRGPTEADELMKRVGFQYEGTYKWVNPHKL

[19] = target: Eukaryotic translation initiation factor 4E (Mus musculus, UniProt P63073); assay: blockers of eIF4G binding by eIF4E – biochemical, TR-FRET, dose response (AID 855); format: functional;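 further: potency for disrupting eIF4E binding to eIF4GI seen as loss of FRET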
Sequence of Eukaryotic translation initiation factor 4E (P63073 whole entry): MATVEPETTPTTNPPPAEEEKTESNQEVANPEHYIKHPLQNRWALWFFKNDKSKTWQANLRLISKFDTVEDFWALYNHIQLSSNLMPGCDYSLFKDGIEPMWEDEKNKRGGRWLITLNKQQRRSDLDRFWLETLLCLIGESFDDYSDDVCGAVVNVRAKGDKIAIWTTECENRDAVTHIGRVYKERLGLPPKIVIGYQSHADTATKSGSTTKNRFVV

Estrogen receptor = target: T4, Estrogen receptor (Homo sapiens, UniProt P03372);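 further: potency for inhibiting coactivator peptide recruitment to the receptor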
T4 sequence (P03372 whole entry): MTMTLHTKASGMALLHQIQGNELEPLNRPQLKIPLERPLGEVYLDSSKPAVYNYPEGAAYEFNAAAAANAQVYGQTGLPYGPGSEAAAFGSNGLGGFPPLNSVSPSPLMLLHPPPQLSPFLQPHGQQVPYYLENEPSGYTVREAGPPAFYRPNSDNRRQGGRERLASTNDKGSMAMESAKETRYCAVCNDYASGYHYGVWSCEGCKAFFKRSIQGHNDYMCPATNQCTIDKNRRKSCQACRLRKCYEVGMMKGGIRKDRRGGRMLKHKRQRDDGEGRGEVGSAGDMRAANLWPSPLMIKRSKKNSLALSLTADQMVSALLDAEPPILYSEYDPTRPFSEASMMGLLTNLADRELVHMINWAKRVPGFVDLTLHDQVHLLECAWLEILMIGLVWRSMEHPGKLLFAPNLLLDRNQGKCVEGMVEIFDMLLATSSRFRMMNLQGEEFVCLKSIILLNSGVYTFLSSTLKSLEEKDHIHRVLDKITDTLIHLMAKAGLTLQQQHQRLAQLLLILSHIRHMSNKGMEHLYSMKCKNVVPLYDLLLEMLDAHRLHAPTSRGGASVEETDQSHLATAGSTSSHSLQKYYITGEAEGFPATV

Prothrombin = Prothrombin (Homo sapiens, UniProt P00734); assay: Thrombin 1536 HTS Dose Response Confirmation. [Related pubchem assays: 1046 (Thrombin 1536 HTS; hits were confirmed in this assay)]; format: functional
HEK293 = assay: EBV LMP1 TES2 canonical NF-kB signalling blockers – cell-based, HEK293, luciferase, cherry-pick, dose response (AID 588343); format: functional; settings: Homo sapiens

Sequence of DNA dC->dU-editing enzyme APOBEC-3G (Q9HC16 whole entry): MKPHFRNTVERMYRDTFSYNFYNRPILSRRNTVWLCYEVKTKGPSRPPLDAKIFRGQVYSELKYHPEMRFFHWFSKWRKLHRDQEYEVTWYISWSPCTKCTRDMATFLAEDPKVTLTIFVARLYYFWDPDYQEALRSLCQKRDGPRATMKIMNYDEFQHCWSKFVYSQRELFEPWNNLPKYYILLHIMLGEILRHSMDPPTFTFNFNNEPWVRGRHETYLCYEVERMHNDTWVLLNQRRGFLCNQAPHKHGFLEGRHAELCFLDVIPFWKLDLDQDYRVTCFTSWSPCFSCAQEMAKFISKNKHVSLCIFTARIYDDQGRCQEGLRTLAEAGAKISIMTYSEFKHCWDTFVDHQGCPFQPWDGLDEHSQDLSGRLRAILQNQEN

CCCc1cc(-c2n[nH]c(=S)n2CC)cs1
IC50 [1]: 6.08 µM (active)
IC50 [2]: > 100 µM (inactive)

CN1c2ccccc2C(C)(C)C12CC(c1ccc(S(=O)(=O)N3CCCCC3)cc1)=NO2 (stereo unspecified)
IC50 (cells): 12 µM (active)
CC50 [3]: 6.73 µM (active)
IC50 (Vero): 4.14 µM (active)

c1csc(-c2nc3c4ccccc4c4ccccc4c3[nH]2)c1
IC50 (cells): 5.21 µM (active)

CCOC(=O)c1c(C)oc2c(F)c(F)c(F)c(F)c2c1=O
AC50 [4]: 1.26 µM (active)
AC50 [5]: 2.32 µM (active)
EC50 [6]: 1.49 µM (active)
EC50 [7]: 1.55 µM (active)

CN(c1ccccc1)c1ccc(/C=C/[N+](=O)[O-])cc1
IC50 (Beta-galactosidase): > 66.6 µM (inactive)
AC50 [8]: 8.67 µM (active)
IC50 [9]: 23.3 µM (active)
CC50 [10]: 25.9 µM (active)
AC50 [11]: 17.5 µM (active)
EC50 [12]: 5.04 µM (inconclusive)
CC50 [13]: 38.5 µM (active)
AC50 [14]: 18 µM (active)
AC50 [15]: 5.79 µM (active)
AC50 (INS1): 6.67 µM (active)

CC(=O)CC1OC(O)=C(Br)/C1=N/Cc1ccccc1 (stereo unspecified)
EC50 [6]: 9.82 µM (active)
EC50 [16]: 4.68 µM (active)
IC50 (Large T antigen): 41.6 µM (active)
EC50 [17]: 0.808 µM (active)
EC50 [7]: 7.33 µM (active)

CCN(CC)CCNC(=O)CCCCn1c(=S)[nH]c2c([nH]c3ccc(OC)cc32)c1=O
IC50 [1]: 2.5 µM (active)
IC50 [2]: > 100 µM (inactive)
IC50 [18]: > 80 µM (inactive)
IC50 (Large T antigen): 8.17 µM (active)
IC50 [19]: > 64 µM (inactive)

O=[N+]([O-])c1cc2c(cc1/C=N/n1c(S)nnc1-c1ccccc1)OCO2
IC50 [1]: 1.89 µM (active)
IC50 [2]: > 100 µM (inactive)

CN(C)c1nc(N/N=C\c2ccc(Cl)c([N+](=O)[O-])c2)nc(Nc2ccc(F)cc2)n1
IC50 (Estrogen receptor): > 50 µM (not active)

Nc1nc(-c2ccco2)nn1C(=O)c1ccccc1
IC50 (Prothrombin): 0.926 µM (active)

CSc1nc2cc3c(cc2n1C(=O)c1ccc(C)cc1)OCCO3
IC50 (Prothrombin): 0.556 µM (active)
AC50 (HEK293): > 350 µM (inactive)
